Measured values taken from patent US10471046B2, “Method for treating, preventing, or reducing the risk of skin infection” (Melinta Subsidiary Corp., priority 2014, dated 2019).
≈ marks a conversion by molar mass, not a printed value.

Test system: S. aureus
Assay: Minimum inhibitory concentrations (MICs) for S. aureus of exemplary compounds (Table 2)
Type: cell-based
Conditions: Staphylococcus aureus, minimum inhibitory concentrations for S. aureus; read-out: MICs
In short: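 Growth of S. aureus in media with or without compound, by broth microdilution in microtiter trays following NCCLS M7-A5 guidelines. Values are MICs in μg/mL.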

MIC	SMILES
2 µg/mL (≈ 4.43 µM)	CC(=O)NC[C@H]1CN(c2ccc(-c3ccc(C(=O)NCc4ccco4)cc3)c(F)c2)C(=O)O1 [Compound 4111, 4′-[5-(S)-(Acetylamino-methyl)-2-oxo-oxazolidin-3-yl]-2′-fluoro-biphenyl-4-carboxylic acid (furan-2-ylmethyl)-amide]
0.25 µg/mL (≈ 0.503 µM)	CC(=O)NC[C@H]1CN(c2ccc(-c3ccc(C(=O)NCCc4scnc4C)cc3)c(F)c2)C(=O)O1 [Compound 4112, 4′-[5-(S)-(Acetylamino-methyl)-2-oxo-oxazolidin-3-yl]-2′-fluoro-biphenyl-4-carboxylic acid [2-(4-methyl-thiazol-5-yl)-ethyl]-amide]
0.25 µg/mL (≈ 0.466 µM)	CC(=O)NC[C@H]1CN(c2ccc(-c3ccc(CNCc4csc(-c5cccs5)n4)cc3)c(F)c2)C(=O)O1 [Compound 4113, N-[3-(2-Fluoro-4′-{[(2-thiophen-2-yl-thiazol-4-ylmethyl)-amino]-methyl}-biphenyl-4-yl)-2-oxo-oxazolidin-5-(S)-ylmethyl]-acetamide]
16 µg/mL (≈ 34.1 µM)	CC(=O)NC[C@H]1CN(c2ccc(-c3ccc(CNCCN4CCNC4=O)cc3)c(F)c2)C(=O)O1 [Compound 4114, N-[3-(2-Fluoro-4′-{[2-(2-oxo-imidazolidin-1-yl)-ethylamino]-methyl}-biphenyl-4-yl)-2-oxo-oxazolidin-5-(S)-ylmethyl]-acetamide]
0.5 µg/mL (≈ 1.05 µM)	CC(=O)NC[C@H]1CN(c2ccc(-c3ccc(C(=O)NCCc4ccccn4)cc3)c(F)c2)C(=O)O1 [Compound 4115, 4′-[5-(S)-(Acetylamino-methyl)-2-oxo-oxazolidin-3-yl]-2′-fluoro-biphenyl-4-carboxylic acid (2-pyridin-2-yl-ethyl)-amide]
1 µg/mL (≈ 2.15 µM)	CC(=O)NC[C@H]1CN(c2ccc(-c3ccc(C(=O)NCCc4cnc[nH]4)cc3)c(F)c2)C(=O)O1 [Compound 4116, 4′-[5-(S)-(Acetylamino-methyl)-2-oxo-oxazolidin-3-yl]-2′-fluoro-biphenyl-4-carboxylic acid [2-(3H-imidazol-4-yl)-ethyl]-amide]
8 µg/mL (≈ 15 µM)	CC(=O)NC[C@H]1CN(c2ccc(-c3ccc(CNCc4cccnc4N4CCOCC4)cc3)c(F)c2)C(=O)O1 [Compound 4117, N-[3-(2-Fluoro-4′-{[(2-morpholin-4-yl-pyridin-3-ylmethyl)-amino]-methyl}-biphenyl-4-yl)-2-oxo-oxazolidin-5-(S)-ylmethyl]-acetamide]
8 µg/mL (≈ 15 µM)	CC(=O)NC[C@H]1CN(c2ccc(-c3ccc(CNCc4ccc(N5CCOCC5)nc4)cc3)c(F)c2)C(=O)O1 [Compound 4118, N-[3-(2-Fluoro-4′-{[(6-morpholin-4-yl-pyridin-3-ylmethyl)-amino]-methyl}-biphenyl-4-yl)-2-oxo-oxazolidin-5-(S)-ylmethyl]-acetamide]
1 µg/mL (≈ 1.88 µM)	CC(=O)NC[C@H]1CN(c2ccc(-c3ccc(CNCc4ccc(-c5ccccn5)s4)cc3)c(F)c2)C(=O)O1 [Compound 4119, N-[3-(2-Fluoro-4′-{[(5-pyridin-2-yl-thiophen-2-ylmethyl)-amino]-methyl}-biphenyl-4-yl)-2-oxo-oxazolidin-5-(S)-ylmethyl]-acetamide]
1 µg/mL (≈ 1.96 µM)	COC(=O)c1cc(CNCc2ccc(-c3ccc(N4C[C@H](CNC(C)=O)OC4=O)cc3F)cc2)oc1C [Compound 4120, 5-[({4′-[5-(S)-(Acetylamino-methyl)-2-oxo-oxazolidin-3-yl]-2′-fluoro-biphenyl-4-ylmethyl}-amino)-methyl]-2-methyl-furan-3-carboxylic acid methyl ester]
0.5 µg/mL (≈ 0.991 µM)	CC(=O)NC[C@H]1CN(c2ccc(-c3ccc(CNCc4nc5ccccc5s4)cc3)c(F)c2)C(=O)O1 [Compound 4121, N-[3-(4′-{[(Benzothiazol-2-ylmethyl)-amino]-methyl}-2-fluoro-biphenyl-4-yl)-2-oxo-oxazolidin-5-(S)-ylmethyl]-acetamide]
1 µg/mL (≈ 1.88 µM)	CC(=O)NC[C@H]1CN(c2ccc(-c3ccc(CNCc4csc(-c5ccccc5)n4)cc3)c(F)c2)C(=O)O1 [Compound 4122, N-[3-(2-Fluoro-4′-{[(2-phenyl-thiazol-4-ylmethyl)-amino]-methyl}-biphenyl-4-yl)-2-oxo-oxazolidin-5-(S)-ylmethyl]-acetamide]
